From the NIST ThermoML archive (doi:10.1021/acs.jced.8b00438)

Assay: xn = mol fraction of the nth substance listed
Settings: 100 kPa, Liquid; for viscosity: Falling or rolling sphere viscometry; for mass density: Vibrating tube method

CCCCCCCCCCCC [dodecane] + CCCCO
Settings	mass density, 293.15 K [kg/m3]	mass density, 298.15 K [kg/m3]	mass density, 303.15 K [kg/m3]	mass density, 308.15 K [kg/m3]	viscosity, 293.15 K [mPa·s]	viscosity, 298.15 K [mPa·s]	viscosity, 303.15 K [mPa·s]	viscosity, 308.15 K [mPa·s]	viscosity, 313.15 K [mPa·s]
x1 = 0.1045	794.67	790.86	787.01	783.13	2.478	2.183	1.934	1.721	1.537
x1 = 0.2008	784.43	780.62	776.76	772.86	2.167	1.919	1.709	1.529	1.373
x1 = 0.3002	776.26	772.45	768.59	764.7	1.935	1.722	1.543	1.388	1.254
x1 = 0.3985	769.8	765.97	762.12	758.24	1.772	1.588	1.43	1.295	1.177
x1 = 0.4995	764.28	760.49	756.67	752.82	1.64	1.477	1.338	1.218	1.114
x1 = 0.5978	759.94	756.17	752.37	748.54	1.561	1.414	1.287	1.177	1.082
x1 = 0.7012	755.99	752.24	748.47	744.67	1.494	1.359	1.242	1.141	1.051
x1 = 0.7671	754.1	750.38	746.62	742.85	1.476	1.345	1.231	1.132	1.045
x1 = 0.8773	751.22	747.52	743.81	740.07	1.458	1.331	1.22	1.124	1.04
x1 = 1	748.83	745.22	741.59	737.95	1.491	1.366	1.257	1.154	1.076
